What all share (assay type): cell-based
The target in one experiment is T1, M3 muscarinic receptor (Homo sapiens, UniProt P20309).
T1 construct: expressed in transfected cells; host or cells: CHO (M3-CHO)
As to the kind of experiment: Functional mobilization of intracellular calcium (FLIPR), M3-CHO cells. The conditions noted are these: for Emax: 100% efficacy = maximum response obtained with the Carbachol control; for M3 Activity: M3-CHO cells, calcium mobilization (FLIPR). The essentials:
(§1)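 Calcium mobilisation read by FLIPR over 60 s (ex 488/em 540 nm) in recombinant muscarinic CHO lines loaded with calcium dye plus 1 mM probenecid. Compounds tested as agonists alone, or as inhibitors against EC80 carbachol after 15 min pre-incubation or co-addition; 0.5% DMSO; efficacy scaled to carbachol maximal response.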

For the next experiment, the target named is T2, M2 muscarinic receptor (Homo sapiens, UniProt P08172).
T2 construct: expressed in transfected cells; host or cells: CHO (M2-CHO)
T2 sequence (P08172 1-466): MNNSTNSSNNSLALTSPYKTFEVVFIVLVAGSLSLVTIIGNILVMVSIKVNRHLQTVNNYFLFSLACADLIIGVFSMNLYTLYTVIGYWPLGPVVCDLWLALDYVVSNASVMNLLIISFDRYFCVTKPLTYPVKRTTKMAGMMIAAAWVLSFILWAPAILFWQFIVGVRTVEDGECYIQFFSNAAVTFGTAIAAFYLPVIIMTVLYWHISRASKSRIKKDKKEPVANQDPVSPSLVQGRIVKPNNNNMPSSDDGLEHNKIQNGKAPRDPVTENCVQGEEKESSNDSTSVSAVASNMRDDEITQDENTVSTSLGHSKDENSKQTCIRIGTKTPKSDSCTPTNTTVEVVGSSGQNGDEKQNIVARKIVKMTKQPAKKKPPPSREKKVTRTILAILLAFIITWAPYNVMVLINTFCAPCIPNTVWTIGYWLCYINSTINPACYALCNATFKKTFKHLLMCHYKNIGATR
As to the kind of experiment: Functional mobilization of intracellular calcium (FLIPR), M2-CHO cells. The conditions noted are these: for Emax: 100% efficacy = maximum response obtained with the Carbachol control; for M2 Activity: M2-CHO cells, calcium mobilization (FLIPR). In short, it runs like this:
as §1

The next experiment deals with T3, M1 muscarinic receptor (Homo sapiens, UniProt P11229).
T3 construct: expressed in transfected cells; host or cells: CHO (M1-CHO)
T3 sequence (P11229 1-460): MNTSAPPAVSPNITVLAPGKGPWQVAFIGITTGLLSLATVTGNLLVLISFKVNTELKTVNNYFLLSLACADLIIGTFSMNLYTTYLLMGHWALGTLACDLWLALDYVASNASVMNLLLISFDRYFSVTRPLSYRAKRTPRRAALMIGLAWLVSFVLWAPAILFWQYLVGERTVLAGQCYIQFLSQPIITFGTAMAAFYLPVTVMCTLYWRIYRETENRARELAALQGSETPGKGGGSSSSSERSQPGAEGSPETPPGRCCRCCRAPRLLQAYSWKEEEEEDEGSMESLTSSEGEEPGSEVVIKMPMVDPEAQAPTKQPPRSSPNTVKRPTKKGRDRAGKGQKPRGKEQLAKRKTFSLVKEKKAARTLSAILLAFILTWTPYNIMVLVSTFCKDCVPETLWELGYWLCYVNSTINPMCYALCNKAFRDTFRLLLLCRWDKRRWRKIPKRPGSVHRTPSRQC
As to the kind of experiment: Functional mobilization of intracellular calcium (FLIPR), M1-CHO cells. The conditions noted are these: for Emax: 100% efficacy = maximum response obtained with the Carbachol control; for M1 Activity: M1-CHO cells, calcium mobilization (FLIPR). In short, it runs like this: as §1

Another experiment concerns the target T4, M4 muscarinic receptor (Homo sapiens, UniProt P08173).
T4 construct: expressed in transfected cells; host or cells: CHO (M4-CHO)
T4 sequence (P08173 1-479): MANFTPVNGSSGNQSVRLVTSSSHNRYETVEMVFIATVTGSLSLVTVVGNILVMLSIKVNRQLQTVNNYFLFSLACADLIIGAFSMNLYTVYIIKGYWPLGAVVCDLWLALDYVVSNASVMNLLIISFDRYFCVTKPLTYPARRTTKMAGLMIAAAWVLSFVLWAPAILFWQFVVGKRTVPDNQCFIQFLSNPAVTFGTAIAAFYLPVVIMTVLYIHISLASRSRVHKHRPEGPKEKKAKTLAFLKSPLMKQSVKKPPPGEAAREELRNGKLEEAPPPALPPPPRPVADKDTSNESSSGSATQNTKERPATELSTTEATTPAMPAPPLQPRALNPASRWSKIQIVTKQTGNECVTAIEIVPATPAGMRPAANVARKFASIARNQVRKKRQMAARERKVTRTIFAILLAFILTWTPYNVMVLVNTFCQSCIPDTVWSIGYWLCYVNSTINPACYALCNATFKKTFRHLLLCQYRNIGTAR
As to the kind of experiment: Functional mobilization of intracellular calcium (FLIPR), M4-CHO cells. To be noted: for Emax: 100% efficacy = maximum response obtained with the Carbachol control; for M4 Activity: M4-CHO cells, calcium mobilization (FLIPR). In short, it runs like this:
as §1

The values below come from US7880007B2, “Bicyclic substituted phenyl piperidine modulators of muscarinic receptors” (Vertex Pharmaceuticals Incorporated, priority 2004, dated 2011).

T1 sequence (P20309 whole entry): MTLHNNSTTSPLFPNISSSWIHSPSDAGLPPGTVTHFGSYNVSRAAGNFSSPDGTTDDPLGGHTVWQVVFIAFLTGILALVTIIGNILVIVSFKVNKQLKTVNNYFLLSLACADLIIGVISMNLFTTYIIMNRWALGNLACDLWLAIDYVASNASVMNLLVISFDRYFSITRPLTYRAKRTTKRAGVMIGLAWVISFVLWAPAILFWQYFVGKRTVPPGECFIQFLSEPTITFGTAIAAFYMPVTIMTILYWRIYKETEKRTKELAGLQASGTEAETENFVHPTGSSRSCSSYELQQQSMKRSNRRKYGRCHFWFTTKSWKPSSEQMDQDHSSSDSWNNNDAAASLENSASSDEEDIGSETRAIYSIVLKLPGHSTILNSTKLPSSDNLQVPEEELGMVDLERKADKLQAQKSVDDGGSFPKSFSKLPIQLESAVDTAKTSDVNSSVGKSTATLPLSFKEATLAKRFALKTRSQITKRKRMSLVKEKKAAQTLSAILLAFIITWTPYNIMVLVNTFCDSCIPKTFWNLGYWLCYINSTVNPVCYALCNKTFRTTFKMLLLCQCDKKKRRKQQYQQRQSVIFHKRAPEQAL

For the molecule `COc1ccc(Cl)cc1C1CCN(C2CC3CCC(C3)C2)CC1` (stereo not drawn) [Compound 27], at M3 muscarinic receptor, the Emax is < 25% and the “M3 Activity” value was “+ (activity was measured to be greater than 5.0 μM)”. For the same molecule, on M2 muscarinic receptor, the Emax lay within 25 to 100% and the “M2 Activity” value is on record as “++ (activity was measured to be from 1.0 μM to 5.0 μM)”. Besides, at M1 muscarinic receptor, the maximal response (Emax) is 25 to 100% and the “M1 Activity” value is “++ (activity was measured to be from 1.0 μM to 5.0 μM)”. Moreover, on M4 muscarinic receptor, the maximum response (Emax) fell in the range of 25 to 100% and the “M4 Activity” value is reported as “+++ (activity was measured to be less than 1.0 μM)”.
Turning to `COc1ccccc1C1(O)CCN(CC2CC3C=CC2C3)CC1` (stereo not drawn) [Compound 29], on M3 muscarinic receptor, the “M3 Activity” value is listed as “+ (activity was measured to be greater than 5.0 μM)”. In addition, at M2 muscarinic receptor, the maximum response (Emax) was < 25% and the “M2 Activity” value is on record as “+ (activity was measured to be greater than 5.0 μM)”. On M1 muscarinic receptor, the maximum response (Emax) fell in the range of 25 to 100% and the “M1 Activity” value is “+ (activity was measured to be greater than 5.0 μM)”. On M4 muscarinic receptor, the Emax lay within 25 to 100% and the “M4 Activity” value is reported as “++ (activity was measured to be from 1.0 μM to 5.0 μM)”.
With `CCOC(=O)N1CCC(N2CCC(O)(c3cc(Cl)ccc3OC)CC2)CC1` [Compound 31], at M3 muscarinic receptor, the maximal response (Emax) is < 25% and the “M3 Activity” value is on record as “+ (activity was measured to be greater than 5.0 μM)”. Also, at M2 muscarinic receptor, the Emax is < 25% and the “M2 Activity” value is “+ (activity was measured to be greater than 5.0 μM)”. In addition, at M1 muscarinic receptor, the maximal response (Emax) is 25 to 100% and the “M1 Activity” value is on record as “++ (activity was measured to be from 1.0 μM to 5.0 μM)”. Besides, on M4 muscarinic receptor, the maximum response (Emax) fell in the range of 25 to 100% and the “M4 Activity” value is “+++ (activity was measured to be less than 1.0 μM)”.
With `FC(F)(F)c1ccccc1C1CCN(C2C[C@H]3CC[C@H]2C3)CC1` (stereo partly drawn) [Compound 32], the Emax on M3 muscarinic receptor was < 25%; at M2 muscarinic receptor, < 25%; at M1 muscarinic receptor, 25 to 100%; at M4 muscarinic receptor it was 25 to 100%.
For `CCOC(=O)N1C2CCC1CC(N1CCC(c3cc(-c4ccc(C(C)(C)C#N)cc4)ccc3OC)CC1)C2` (stereo not drawn) [Compound 33], at M3 muscarinic receptor, the Emax is < 25% and the “M3 Activity” value is “+ (activity was measured to be greater than 5.0 μM)”. For the same molecule, on M2 muscarinic receptor, the Emax is < 25% and the “M2 Activity” value is recorded as “+ (activity was measured to be greater than 5.0 μM)”. Also, at M1 muscarinic receptor, the maximal effect (Emax) lay in the range of 25 to 100% and the “M1 Activity” value is “++ (activity was measured to be from 1.0 μM to 5.0 μM)”. Moreover, on M4 muscarinic receptor, the Emax was in the range of 25 to 100% and the “M4 Activity” value is recorded as “++ (activity was measured to be from 1.0 μM to 5.0 μM)”.
On to `COc1ccccc1C1CCN(C2CC(C)CC(C)C2)CC1` (stereo not drawn) [Compound 34], for which, on M3 muscarinic receptor, the Emax was < 25% and the “M3 Activity” value is recorded as “+ (activity was measured to be greater than 5.0 μM)”. At M2 muscarinic receptor, the maximum response (Emax) is < 25% and the “M2 Activity” value is “+ (activity was measured to be greater than 5.0 μM)”. Moreover, at M1 muscarinic receptor, the maximal response (Emax) is < 25% and the “M1 Activity” value is reported as “+ (activity was measured to be greater than 5.0 μM)”. At M4 muscarinic receptor, the maximal effect (Emax) is < 25% and the “M4 Activity” value is “+ (activity was measured to be greater than 5.0 μM)”.
Turning to `COc1cc(F)ccc1C1CCN([C@@H]2C[C@H]3CC[C@H]2C3)CC1` [Compound 35], on M3 muscarinic receptor, the maximal effect (Emax) is < 25% and the “M3 Activity” value was “+ (activity was measured to be greater than 5.0 μM)”. Besides, on M2 muscarinic receptor, the Emax is < 25% and the “M2 Activity” value was “+ (activity was measured to be greater than 5.0 μM)”. For the same molecule, at M1 muscarinic receptor, the maximal effect (Emax) was 25 to 100% and the “M1 Activity” value is reported as “+ (activity was measured to be greater than 5.0 μM)”. On M4 muscarinic receptor, the maximum response (Emax) was 25 to 100% and the “M4 Activity” value was “+++ (activity was measured to be less than 1.0 μM)”.
On to `CNC(=O)c1ccc(-c2ccc(OC)c(C3CCN(C4CCCCC4)CC3)c2)cc1` [Compound 36], for which, at M3 muscarinic receptor, the Emax was < 25% and the “M3 Activity” value is recorded as “+ (activity was measured to be greater than 5.0 μM)”. At M2 muscarinic receptor, the maximal effect (Emax) was < 25% and the “M2 Activity” value was “+ (activity was measured to be greater than 5.0 μM)”. For the same molecule, at M1 muscarinic receptor, the maximal effect (Emax) was < 25% and the “M1 Activity” value is reported as “+ (activity was measured to be greater than 5.0 μM)”. On M4 muscarinic receptor, the Emax lay in the range of 25 to 100% and the “M4 Activity” value is listed as “++ (activity was measured to be from 1.0 μM to 5.0 μM)”.
As to `COc1ccccc1C1CC2CCC(C1)N2C1CCOCC1` (stereo not drawn) [Compound 37], on M3 muscarinic receptor, the Emax was < 25% and the “M3 Activity” value is given as “+ (activity was measured to be greater than 5.0 μM)”. On M2 muscarinic receptor, the maximal effect (Emax) is < 25% and the “M2 Activity” value is “+ (activity was measured to be greater than 5.0 μM)”. Moreover, at M1 muscarinic receptor, the Emax is < 25% and the “M1 Activity” value is recorded as “+ (activity was measured to be greater than 5.0 μM)”. Further, on M4 muscarinic receptor, the maximum response (Emax) is < 25% and the “M4 Activity” value is “+ (activity was measured to be greater than 5.0 μM)”.
For the molecule `COc1ccccc1C1CCN(C2CCC[C@@H](C)C2)CC1` (stereo partly drawn) [Compound 38], at M3 muscarinic receptor, the Emax is < 25% and the “M3 Activity” value is “+ (activity was measured to be greater than 5.0 μM)”. Besides, at M2 muscarinic receptor, the Emax is < 25% and the “M2 Activity” value was “+ (activity was measured to be greater than 5.0 μM)”. Also, on M1 muscarinic receptor, the Emax is < 25% and the “M1 Activity” value is “+ (activity was measured to be greater than 5.0 μM)”. On M4 muscarinic receptor, the Emax fell in the range of 25 to 100% and the “M4 Activity” value is recorded as “+++ (activity was measured to be less than 1.0 μM)”.
`CCOC(=O)N1CCC(CN2CCC(c3cc(F)ccc3OC)CC2)CC1` [Compound 39]: on M3 muscarinic receptor, the Emax was < 25% and the “M3 Activity” value was “+ (activity was measured to be greater than 5.0 μM)”. In addition, on M2 muscarinic receptor, the Emax was in the range of 25 to 100% and the “M2 Activity” value is “+++ (activity was measured to be less than 1.0 μM)”. In addition, at M1 muscarinic receptor, the maximal effect (Emax) was in the range of 25 to 100% and the “M1 Activity” value was “+++ (activity was measured to be less than 1.0 μM)”. Moreover, on M4 muscarinic receptor, the maximal response (Emax) fell in the range of 25 to 100% and the “M4 Activity” value is recorded as “+++ (activity was measured to be less than 1.0 μM)”.
`COc1ccc(F)cc1C1(F)CCN(C2CC3CCC(C3)C2)CC1` (stereo not drawn) [Compound 40]: at M3 muscarinic receptor, the maximum response (Emax) is < 25% and the “M3 Activity” value is “+ (activity was measured to be greater than 5.0 μM)”. For the same molecule, on M2 muscarinic receptor, the Emax lay within 25 to 100% and the “M2 Activity” value is listed as “+ (activity was measured to be greater than 5.0 μM)”. In addition, at M1 muscarinic receptor, the Emax lay in the range of 25 to 100% and the “M1 Activity” value is “++ (activity was measured to be from 1.0 μM to 5.0 μM)”. On M4 muscarinic receptor, the maximal effect (Emax) was 25 to 100% and the “M4 Activity” value is on record as “+++ (activity was measured to be less than 1.0 μM)”.
As to `OC1(c2ccc(F)cc2F)CCN(C2C[C@H]3CC[C@H]2C3)CC1` (stereo partly drawn) [Compound 41], on M3 muscarinic receptor, the Emax was < 25% and the “M3 Activity” value was “+ (activity was measured to be greater than 5.0 μM)”. Also, on M2 muscarinic receptor, the Emax was < 25% and the “M2 Activity” value is “+ (activity was measured to be greater than 5.0 μM)”. For the same molecule, on M1 muscarinic receptor, the maximum response (Emax) is < 25% and the “M1 Activity” value is reported as “+ (activity was measured to be greater than 5.0 μM)”. At M4 muscarinic receptor, the maximal effect (Emax) is < 25% and the “M4 Activity” value was “+ (activity was measured to be greater than 5.0 μM)”.
